Assay results taken from US20070196866A1, “Modulators of ion channel trpa1” (IRM LLC, priority 2004, published 2007).

How the values were obtained:
Assay type in all cases: cell-based
[1] = system: TRPV1; test: Calcium imaging of TRPV1-expressing CHO cells
[2] = system: adult rat DRG neurons; test: Calcium imaging of cultured adult rat DRG neurons
Text: To further test this hypothesis, and to find out if the pungent compounds described above activate TRPA1 specifically, we performed calcium imaging of adult rat DRG neurons in response to cold, menthol, cinnamaldehyde, allyl isothiocyanate, and bradykinin. […] To a large extent, cinnamaldehyde and menthol activated mutually exclusive populations of cold-responsive neurons, as our model would predict. Allyl isothiocyanate appeared less specific as it activated 63% of the cold-responsive population (including a large overlap with menthol) and 12% of the cold-insensitive population. We have used 1.6 times the EC50 values of cinnamaldehyde and allyl isothiocyanate to enable us to directly compare DRG response profiles to these compounds. […] There were no significant differences in profiles of cinnamaldehyde and allyl isothiocyanate between cultures in the presence of 1 and 100 ng/ml of NGF.
In addition to the pungent sensory compounds, we have shown that BK can activate TRPA1.
To test if garlic extracts and allicin specifically activate TRPA1 in native neurons, we performed calcium imaging of adult rat DRG neurons. […] Addition of allicin or garlic extract to cultured rat DRG neurons activated a specific population of neurons.

[3] = molecular target: T1, TRPA1 (Homo sapiens, UniProt O75762); test: Electrophysiological recording of TRPA1-expressing oocytes; set-up: expressed in transfected cells; host or cells: oocytes; details: 1 μM
Target sequence in this assay (O75762 whole entry, species assumed): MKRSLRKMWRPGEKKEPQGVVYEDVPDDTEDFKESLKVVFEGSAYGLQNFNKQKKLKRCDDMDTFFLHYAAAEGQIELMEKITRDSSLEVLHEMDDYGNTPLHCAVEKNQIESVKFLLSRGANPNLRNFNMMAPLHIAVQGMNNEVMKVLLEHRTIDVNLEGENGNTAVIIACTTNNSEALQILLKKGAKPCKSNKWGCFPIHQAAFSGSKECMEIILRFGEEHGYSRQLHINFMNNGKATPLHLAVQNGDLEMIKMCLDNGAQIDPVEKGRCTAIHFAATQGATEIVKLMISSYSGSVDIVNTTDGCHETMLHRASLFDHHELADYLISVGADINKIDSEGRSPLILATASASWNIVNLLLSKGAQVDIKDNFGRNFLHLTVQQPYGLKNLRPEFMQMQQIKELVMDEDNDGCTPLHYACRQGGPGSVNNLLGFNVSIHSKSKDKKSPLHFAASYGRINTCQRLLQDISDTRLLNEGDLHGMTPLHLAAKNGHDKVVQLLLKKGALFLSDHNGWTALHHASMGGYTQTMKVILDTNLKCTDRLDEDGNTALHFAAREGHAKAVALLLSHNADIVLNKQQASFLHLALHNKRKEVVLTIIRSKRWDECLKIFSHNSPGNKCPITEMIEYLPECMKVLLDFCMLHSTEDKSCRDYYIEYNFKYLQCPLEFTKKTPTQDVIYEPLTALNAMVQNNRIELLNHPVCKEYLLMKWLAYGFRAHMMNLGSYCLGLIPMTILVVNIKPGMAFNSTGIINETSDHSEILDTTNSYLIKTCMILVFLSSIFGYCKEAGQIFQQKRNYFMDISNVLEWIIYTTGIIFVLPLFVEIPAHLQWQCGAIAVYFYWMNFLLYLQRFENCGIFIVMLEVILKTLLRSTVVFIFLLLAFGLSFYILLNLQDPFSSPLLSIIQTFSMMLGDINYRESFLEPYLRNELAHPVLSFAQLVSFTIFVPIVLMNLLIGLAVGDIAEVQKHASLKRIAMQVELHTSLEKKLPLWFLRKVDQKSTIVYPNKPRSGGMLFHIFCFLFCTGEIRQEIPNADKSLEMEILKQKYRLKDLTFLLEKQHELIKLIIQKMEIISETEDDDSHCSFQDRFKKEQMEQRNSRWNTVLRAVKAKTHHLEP

[4] = molecular target: T2, mouse TRPA1 (Mus musculus, UniProt Q8BLA8); test: FLIPR intracellular calcium assay, mouse TRPA1-expressing CHO cells
T2 construct: expressed in transfected cells; host or cells: CHO cells

[5] = molecular target: T3, mTRPA1 (Mus musculus, UniProt Q8BLA8); test: Ratiometric calcium imaging of CHO cells expressing mTRPA1
T3 construct: expressed in transfected cells; host or cells: CHO cells

[6] = molecular target: T1, TRPA1; test: FLIPR dose response, hTRPA1; set-up: expressed in transfected cells
Target sequence in this assay (O75762 whole entry): as the sequence (O75762 whole entry, species assumed) above

[7] = system: TRPV1; test: FLIPR calcium assay, TRPV1-expressing CHO cells; details: 2 mM
Text: We then tested these compounds against TRPM8 and TRPV1.

T2 sequence (Q8BLA8 whole entry): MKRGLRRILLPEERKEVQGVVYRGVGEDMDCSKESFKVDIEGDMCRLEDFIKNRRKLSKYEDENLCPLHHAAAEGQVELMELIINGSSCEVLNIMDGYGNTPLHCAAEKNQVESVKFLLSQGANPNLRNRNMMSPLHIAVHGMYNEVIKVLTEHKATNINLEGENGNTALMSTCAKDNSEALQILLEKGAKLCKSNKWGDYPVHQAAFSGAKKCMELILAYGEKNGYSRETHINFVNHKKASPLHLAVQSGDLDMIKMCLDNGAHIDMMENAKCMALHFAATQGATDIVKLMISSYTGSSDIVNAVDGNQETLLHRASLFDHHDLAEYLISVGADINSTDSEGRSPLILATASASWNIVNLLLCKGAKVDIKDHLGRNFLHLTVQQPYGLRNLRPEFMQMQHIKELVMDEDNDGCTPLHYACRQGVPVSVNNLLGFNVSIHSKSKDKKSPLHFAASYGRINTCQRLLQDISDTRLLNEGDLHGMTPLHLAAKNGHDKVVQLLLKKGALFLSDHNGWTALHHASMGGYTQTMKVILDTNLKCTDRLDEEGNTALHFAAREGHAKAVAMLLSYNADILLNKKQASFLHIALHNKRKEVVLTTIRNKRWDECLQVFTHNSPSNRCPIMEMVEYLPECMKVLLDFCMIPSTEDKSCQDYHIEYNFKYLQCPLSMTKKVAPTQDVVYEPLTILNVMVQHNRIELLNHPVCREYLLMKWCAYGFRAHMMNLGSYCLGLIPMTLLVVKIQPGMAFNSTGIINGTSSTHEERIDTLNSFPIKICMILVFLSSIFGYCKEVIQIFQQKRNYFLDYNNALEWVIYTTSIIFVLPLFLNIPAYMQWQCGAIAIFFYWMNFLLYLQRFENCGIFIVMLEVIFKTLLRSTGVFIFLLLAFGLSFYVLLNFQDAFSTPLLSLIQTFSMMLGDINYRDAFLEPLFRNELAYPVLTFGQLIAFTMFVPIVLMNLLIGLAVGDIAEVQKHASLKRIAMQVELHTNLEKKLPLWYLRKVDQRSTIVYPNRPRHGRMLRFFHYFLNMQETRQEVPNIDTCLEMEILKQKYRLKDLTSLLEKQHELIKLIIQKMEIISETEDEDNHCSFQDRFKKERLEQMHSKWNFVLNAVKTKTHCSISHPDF
T3 sequence (Q8BLA8 whole entry): as above

Compound | calcium response of TRPV1-expressing CHO cells [1] | response of capsaicin-insensitive neurons [2] | DRG neuron population activated at high concentrations ([2]; dilution 1:50 for garlic, 100 μM allicin) | DRG neuron population activated at low concentrations ([2]; dilution 1:500 for garlic, 10 μM allicin) | activation of TRPA1-expressing oocytes [3] | EC50 ([4]; FLIPR, mTRPA1, read-out: concentration for half maximal activation (EC50)) [nM] | calcium response of TRPA1-expressing CHO cells [5] | EC50 [6] [nM] | specificity to mTRPA1 when tested against TRPM8 and TRPV1 ([4]; 600 μM) | increase in intracellular calcium upon application ([4]; FLIPR, mTRPA1 CHO cells) | activation of TRPV1-expressing cells, relative to TRPV1 response from saturating amounts of capsaicin [7] [%]
C=CCS[S+]([O-])CC=C (centres unmarked) [allicin, diallyl disulfide oxide] | immediate and strong calcium response | never responded | activated the majority of capsaicin-sensitive DRG neurons | activated only the cinnamaldehyde-sensitive neurons | able to activate | 1320 | immediate and strong calcium response | 1910 | – | – | –
COC(=O)c1ccccc1O [Methyl salicylate] | – | – | – | – | – | – | – | – | specific to mTRPA1 | sharp increase in intracellular calcium | 25
